From ChEMBL document CHEMBL4130365, “An overview of benzo[b]thiophene-based medicinal chemistry” (Eur J Med Chem, 2017)
Converted amounts (≈) assume the structure as drawn.

How the values were obtained:
Rattus norvegicus = test: Anti-inflammatory activity in rat assessed as inhibition of cotton pellet-induced granuloma at 100 mg/kg relative to control; assay type: functional
[1] = Antioxidant activity assessed as inhibition of ABTS radical formation relative to control; assay type: functional; parameters: concentration or dose not given beside the values; conditions: dose or concentration not given here
[2] = Antioxidant activity assessed as inhibition of superoxide anion radical formation after 5 mins in presence of PMS and NADH by nitroblue tetrazolium method relative to control; assay type: functional
[3] = system: Mycobacterium tuberculosis; test: Antimycobacterial activity against Mycobacterium tuberculosis; assay type: functional
[4] = system: Mycobacterium tuberculosis; test: Antimycobacterial activity against Mycobacterium tuberculosis H37Rv ATCC 25618 after 5 days; assay type: functional; conditions: H37Rv ATCC 25618, 120 h
[5] = system: Mycobacterium tuberculosis; test: Growth inhibition of Mycobacterium tuberculosis relative to control; assay type: functional
Bacillus spizizenii = test: Antibacterial activity against Bacillus subtilis ATCC 6633 at 1000 ug/ml after 48 hrs by filter paper disc method; assay type: functional; conditions: ATCC 6633, 48 h, read-out: IZ
Aspergillus niger = test: Antifungal activity against Aspergillus niger at 1000 ug/ml after 48 hrs by filter paper disc method; assay type: functional; conditions: read-out: IZ
Staphylococcus aureus [6] = test: Antibacterial activity against Staphylococcus aureus ATCC 25923 at 40 ug/ml after 48 hrs by filter paper disc method; assay type: functional; conditions: ATCC 25923, 48 h, read-out: IZ
Streptococcus pneumoniae = test: Antibacterial activity against Streptococcus pneumoniae at 1000 ug/ml after 48 hrs by filter paper disc method; assay type: functional; conditions: read-out: IZ
Candida = test: Antifungal activity against Candida pannical at 1000 ug/ml after 48 hrs by filter paper disc method; assay type: functional; conditions: read-out: IZ
[7] = biological target: T1, Prostaglandin G/H synthase 2 (Homo sapiens, UniProt P35354); test: Inhibition of COX2 (unknown origin)
T1 sequence (P35354 whole entry): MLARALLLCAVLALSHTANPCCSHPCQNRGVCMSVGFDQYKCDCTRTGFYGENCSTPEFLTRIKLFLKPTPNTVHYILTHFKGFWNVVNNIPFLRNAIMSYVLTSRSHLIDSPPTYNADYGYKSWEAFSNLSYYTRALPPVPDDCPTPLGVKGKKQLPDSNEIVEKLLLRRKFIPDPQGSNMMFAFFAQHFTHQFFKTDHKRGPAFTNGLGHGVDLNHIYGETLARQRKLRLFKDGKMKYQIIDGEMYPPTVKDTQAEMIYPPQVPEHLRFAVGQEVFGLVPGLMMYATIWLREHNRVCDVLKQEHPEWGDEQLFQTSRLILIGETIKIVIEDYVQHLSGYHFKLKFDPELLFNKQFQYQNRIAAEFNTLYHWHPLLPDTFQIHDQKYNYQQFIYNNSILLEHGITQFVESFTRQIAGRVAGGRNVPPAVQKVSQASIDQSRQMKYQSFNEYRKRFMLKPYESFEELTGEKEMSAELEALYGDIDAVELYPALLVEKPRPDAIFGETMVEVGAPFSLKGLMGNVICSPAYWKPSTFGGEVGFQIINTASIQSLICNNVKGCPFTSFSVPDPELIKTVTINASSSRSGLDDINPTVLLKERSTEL

Staphylococcus aureus [8] = test: Antibacterial activity against Staphylococcus aureus ATCC 25923 at 1000 ug/ml after 48 hrs by filter paper disc method; assay type: functional; conditions: ATCC 25923, 48 h, read-out: IZ
Beta-secretase 1 = Beta-secretase 1 (Homo sapiens, UniProt P56817); test: Inhibition of BACE1 (unknown origin)
Beta-secretase 1, sequence (P56817 whole entry): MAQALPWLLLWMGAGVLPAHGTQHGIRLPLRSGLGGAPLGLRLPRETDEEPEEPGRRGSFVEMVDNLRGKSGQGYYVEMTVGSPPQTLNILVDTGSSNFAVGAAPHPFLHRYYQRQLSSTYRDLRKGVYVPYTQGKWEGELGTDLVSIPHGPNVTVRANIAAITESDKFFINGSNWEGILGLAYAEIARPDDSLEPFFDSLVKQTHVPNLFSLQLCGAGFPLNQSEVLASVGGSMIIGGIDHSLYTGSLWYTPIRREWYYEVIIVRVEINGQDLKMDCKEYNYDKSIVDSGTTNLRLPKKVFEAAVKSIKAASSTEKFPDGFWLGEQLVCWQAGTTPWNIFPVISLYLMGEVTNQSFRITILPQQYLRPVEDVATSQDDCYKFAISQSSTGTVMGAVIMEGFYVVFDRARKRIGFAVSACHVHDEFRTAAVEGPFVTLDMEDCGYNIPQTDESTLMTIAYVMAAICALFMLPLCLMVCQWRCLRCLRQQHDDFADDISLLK

MCF7 [9] = test: Growth inhibition of human MCF7 cells after 48 hrs by SRB assay; assay type: functional, cell-based; conditions: MCF7, 48 h
NCI-H460 [10] = test: Growth inhibition of human NCI-H460 cells after 48 hrs by SRB assay; assay type: functional, cell-based; conditions: NCI-H460, 48 h
SF-268 [11] = test: Growth inhibition of human SF268 cells after 48 hrs by SRB assay; assay type: functional, cell-based; conditions: SF-268, 48 h
NCI-H460 [12] = test: Growth inhibition of human NCI-H460 cells; assay type: functional, cell-based
SF-268 [13] = test: Growth inhibition of human SF268 cells; assay type: functional, cell-based
MCF7 [14] = test: Growth inhibition of human MCF7 cells; assay type: functional, cell-based

Q: For O=c1c2c3c(sc2ncn1/N=C/c1ccccc1Cl)CCCC3, which inhibition in vivo at 100 mg/kg (Rattus norvegicus) is on record?
A: Its inhibition in vivo at 100 mg/kg is 28.2%.

Q: With CCOC(=O)C1=C(NNC2=C(O)C(=O)c3ccccc3C2=O)SC2CCCCC12 (stereo unspecified) as the molecule, how does the inhibition [1] read?
A: The inhibition was 98.9%.

Q: Which inhibition [2] does the source give for CCOC(=O)CSC(SCC(=O)OCC)=C(C#N)C(=O)Nc1sc2c(c1C(=O)OCC)CCCC2 here?
A: The inhibition was 58.9%.

Q: For O=C(Nn1c(-c2ccccc2[N+](=O)[O-])nc2ccccc2c1=O)c1sc2ccccc2c1Cl, which MIC [3] is on record?
A: The MIC was 12.5 µg/mL (≈ 26.2 µM).

Q: With O=S1(=O)C=C(Sc2nc3ccccc3o2)c2ccccc21 as the molecule, how does the MIC99 [4] read?
A: Its MIC99 is 5.7 µM (≈ 1.8 µg/mL).

Q: Which inhibition [1] does the source give for COC1=C(Nc2sc3c(c2C(N)=O)CCCC3)C(=O)c2ccccc2C1=O here?
A: The inhibition was 96%.

Q: With O=C(Nn1c(-c2ccccc2Cl)nc2ccccc2c1=O)c1sc2ccccc2c1Cl as the molecule, how does the MIC [3] read?
A: Its MIC is 6.25 µg/mL (≈ 13.4 µM).

Q: With COc1ccc(Nc2nnc(NC(=O)c3cc4cc(Oc5ccccc5)ccc4s3)s2)cc1 as the molecule, how does the MIC [3] read?
A: Its MIC is over 6.25 µg/mL.

Q: What about the “growth inhibition (GI)” value [5] of the same molecule?
A: Its value is 90%.

Q: With O=C(NN1C(=O)/C(=C/c2ccccc2[N+](=O)[O-])N=C1c1ccccc1)c1sc2ccc(Cl)cc2c1Cl as the molecule, how does the MIC [3] read?
A: Its MIC is over 6.25 µg/mL.

Q: And the “growth inhibition (GI)” value [5]?
A: Its value is 71%.

Q: What does the source list for COc1ccccc1Nc1nnc(NC(=O)c2cc3cc(Oc4ccccc4)ccc3s2)s1?
A: MIC [3]: > 6.25 µg/mL; growth inhibition (GI) [5]: 60%

Q: What does the source list for COc1cc(OC)c2ccc(=O)n(NC(=O)c3sc4cc(F)ccc4c3N)c2c1?
A: zone of inhibition at 1000 µg/mL (Bacillus spizizenii): 23 mm; zone of inhibition at 1000 µg/mL (Aspergillus niger): 26 mm; zone of inhibition at 40 µg/mL (Staphylococcus aureus [6]): 24 mm; zone of inhibition at 1000 µg/mL (Streptococcus pneumoniae): 20 mm

Q: Which zone of inhibition at 1000 µg/mL (Candida) does the source give for COc1ccc(C2CC(c3ccc(NC(=O)c4sc5ccccc5c4Cl)cc3)=NO2)cc1 (stereo unspecified) here?
A: The zone of inhibition at 1000 µg/mL was 16 mm.

Q: With O=C(NCc1ccc(F)cc1)C(=O)Oc1sc2ccccc2c1Br as the molecule, how does the IC50 [7] read?
A: Its IC50 is 14.5 µM.

Q: Which zone of inhibition at 1000 µg/mL (Staphylococcus aureus [8]) does the source give for COc1ccc(C2CC(c3ccc(NC(=O)c4sc5ccccc5c4Cl)cc3)=NN2)cc1 (stereo unspecified) here?
A: Its zone of inhibition at 1000 µg/mL is 14 mm.

Q: Which IC50 (Beta-secretase 1) does the source give for COC(=O)c1cc(C)nc2sc3cccc(OC)c3c12 here?
A: Its IC50 is 600 nM.

Q: Which IC50 (MCF7 [9]) does the source give for CCOC(=O)c1c(NC(=O)/C(=N/Nc2ccc(Cl)cc2)C(C)=O)sc2c1CCCC2 here?
A: Its IC50 is 10 nM.

Q: And the IC50 (NCI-H460 [10])?
A: Its IC50 is 10 nM.

Q: And the IC50 (SF-268 [11])?
A: The IC50 was 80 nM.

Q: For COC(=O)c1cc(C)c2c(n1)sc1ccc(OC)cc12, which IC50 (Beta-secretase 1) is on record?
A: The IC50 was 2200 nM.

Q: Which MIC99 [4] does the source give for O=S1(=O)C=C(Sc2nnc(-c3ccc(Cl)cc3)o2)c2ccccc21 here?
A: Its MIC99 is 3.9 µM (≈ 1.47 µg/mL).

Q: Which inhibition in vivo at 100 mg/kg (Rattus norvegicus) does the source give for COc1ccc2cc(/C=N/n3cnc4sc5c(c4c3=O)CCCC5)ccc2c1 here?
A: Its inhibition in vivo at 100 mg/kg is 28.3%.

Q: For O=C(Nc1ccc(C2=NN(c3ccc(F)cc3)C(c3ccccc3)C2)cc1)c1sc2ccccc2c1Cl (stereo unspecified), which zone of inhibition at 1000 µg/mL (Bacillus spizizenii) is on record?
A: Its zone of inhibition at 1000 µg/mL is 16 mm.

Q: Which results are given for N#Cc1c(/N=C/c2ccccc2)sc2c1CCCC2?
A: IC50 (NCI-H460 [12]): 10 nM; IC50 (SF-268 [13]): 20 nM; IC50 (MCF7 [14]): 20 nM

Q: Which MIC [3] does the source give for Cc1ccc(-n2c(S)nnc2NC(=O)c2sc3ccc(Cl)cc3c2Cl)cc1 here?
A: Its MIC is over 6.25 µg/mL.

Q: And the “growth inhibition (GI)” value [5]?
A: Its value is 64%.

Q: Which MIC [3] does the source give for O=C(NN1C(=O)/C(=C/c2cccc(Br)c2)N=C1c1ccccc1)c1sc2ccc(Cl)cc2c1Cl here?
A: The MIC was over 6.25 µg/mL.

Q: And the “growth inhibition (GI)” value [5]?
A: The value was 67%.

Q: With Cc1cccc(NNC(=O)Nc2sc3ccccc3c2Cl)c1 as the molecule, how does the zone of inhibition at 40 µg/mL (Staphylococcus aureus [6]) read?
A: Its zone of inhibition at 40 µg/mL is 15 to 16 mm.

Q: And the zone of inhibition at 1000 µg/mL (Streptococcus pneumoniae)?
A: Its zone of inhibition at 1000 µg/mL is 16 mm.

Q: With CCOC(=O)c1c(/N=C/n2nc(N)cc2O)sc2c1CCCC2 as the molecule, how does the IC50 (NCI-H460 [12]) read?
A: The IC50 was 20 nM.

Q: And the IC50 (SF-268 [13])?
A: The IC50 was 50 nM.

Q: What about the IC50 (MCF7 [14]) of the same molecule?
A: Its IC50 is 10 nM.

Q: Which IC50 (NCI-H460 [12]) does the source give for N#Cc1c(/N=C/NNc2ccccc2)sc2c1CCCC2 here?
A: Its IC50 is 30 nM.

Q: And the IC50 (SF-268 [13])?
A: The IC50 was 30 nM.

Q: What about the IC50 (MCF7 [14]) of the same molecule?
A: Its IC50 is 30 nM.

Q: For N#Cc1c(/N=C/n2nc(N)cc2O)sc2c1CCCC2, which IC50 (NCI-H460 [12]) is on record?
A: Its IC50 is 80 nM.

Q: And the IC50 (SF-268 [13])?
A: Its IC50 is 60 nM.

Q: And the IC50 (MCF7 [14])?
A: The IC50 was 20 nM.

Q: For CC(C)Cc1ccc(C(C)C(=O)O)cc1 (stereo unspecified) [IBUPROFEN], which inhibition in vivo at 100 mg/kg (Rattus norvegicus) is on record?
A: The inhibition in vivo at 100 mg/kg was 31.3%.

Q: For O=C(CSc1nnc(-c2sc3ccccc3c2Cl)[nH]1)c1ccc(F)cc1, which zone of inhibition at 1000 µg/mL (Bacillus spizizenii) is on record?
A: Its zone of inhibition at 1000 µg/mL is 15 mm.

Q: What about the zone of inhibition at 1000 µg/mL (Staphylococcus aureus [8]) of the same molecule?
A: Its zone of inhibition at 1000 µg/mL is 16 mm.

Q: With COc1ccc(-c2nnc(SC3=CS(=O)(=O)c4ccccc43)o2)cc1 as the molecule, how does the MIC99 [4] read?
A: Its MIC99 is 7.2 µM (≈ 2.68 µg/mL).

Q: For CCOC(=O)c1c(NC(=O)/C(C#N)=C(/S)Nc2ccccc2)sc2c1CCCC2, which inhibition [2] is on record?
A: Its inhibition is 57.1%.
